{"source": "patent US9307767B2", "about": "“Herbicidally and insecticidally active thiazolopyridinones” (BAYER INTELLECTUAL PROPERTY GMBH, priority 2012, dated 2016)", "type_in_all_cases": "in vivo", "key": {"rice [1]": {"test_system": "rice", "assay": "Post-emergence test, damage to crop plants", "conditions": "after about 3 weeks", "procedure": "(§1) Seeds of monocotyledonous and dicotyledonous weed and crop plants are placed in sandy loam in wood-fiber pots, covered with soil and cultivated in a greenhouse under good growth conditions. 2 to 3 weeks after sowing, the test plants are treated at the one-leaf stage. The compounds according to the invention, formulated in the form of wettable powders (WP) or as emulsion concentrates (EC), are then sprayed as aqueous suspension or emulsion at a water application rate of 600 to 800 l/ha (converted) with the addition of 0.2% of wetting agent onto the green parts of the plants. After the test plants have been left to stand in the greenhouse under optimal growth conditions for about 3 weeks, the action of the formulations is assessed visually in comparison to untreated controls (herbicidal action in percent (%): 100% activity=the plants have died, 0% activity=like control plants). Here, the compounds Nos. I-a-39 and I-a-42, for example, show, at an application rate of 320 g/ha, an activity of at least 80% against Setaria viridis and at the same time no damage in corn and oilseed rape."}, "corn [2]": {"test_system": "corn", "assay": "Post-emergence test, damage to crop plants", "conditions": "after about 3 weeks", "procedure": "as §1"}, "wheat [3]": {"test_system": "wheat", "assay": "Post-emergence test, damage to crop plants", "conditions": "application rate 80 g/ha, after about 3 weeks", "procedure": "as §1"}, "oilseed rape [4]": {"test_system": "oilseed rape", "assay": "Post-emergence test, damage to crop plants", "conditions": "application rate 320 g/ha, after about 3 weeks", "procedure": "as §1"}, "Setaria viridis": {"test_system": "Setaria viridis", "assay": "Pre-emergence herbicidal action against weed plants", "conditions": "application rate 1280 g/ha, visual assessment after 3 weeks", "text": "(§2) Seeds of monocotyledonous and dicotyledonous weed plants and crop plants are placed in wood-fiber pots in sandy loam and covered with soil. The compounds according to the invention, formulated in the form of wettable powders (WP) or as emulsion concentrates (EC), are then applied as aqueous suspension or emulsion at a water application rate of 600 to 800 l/ha (converted) with the addition of 0.2% of wetting agent to the surface of the covering soil. After the treatment, the pots are placed in a greenhouse and kept under good growth conditions for the test plants. The damage to the test plants is assessed visually after a test period of 3 weeks by comparison with untreated controls (herbicidal activity in percent (%): 100% action=the plants have died, 0% action=like control plants). […] The compounds Nos. I-a-38 and I-a-39 each show, at an application rate of 1280 g/ha, an of at least 80% against Echinochloa crus galli and Veronica persica and at the same time no damage in corn and oilseed rape."}, "Lolium multiflorum [5]": {"test_system": "Lolium multiflorum", "assay": "Pre-emergence herbicidal action against weed plants", "conditions": "application rate 1280 g/ha, visual assessment after 3 weeks", "text": "as §2"}, "wheat [6]": {"test_system": "wheat", "assay": "Pre-emergence test, damage to crop plants", "conditions": "application rate 1280 g/ha, after 3 weeks", "text": "as §2"}, "Cyperus serotinus": {"test_system": "Cyperus serotinus", "assay": "Pre-emergence herbicidal action against weed plants", "conditions": "application rate 1280 g/ha, visual assessment after 3 weeks", "text": "as §2"}, "Alopecurus myosuroides": {"test_system": "Alopecurus myosuroides", "assay": "Pre-emergence herbicidal action against weed plants", "conditions": "application rate 1280 g/ha, visual assessment after 3 weeks", "text": "as §2"}, "rice [7]": {"test_system": "rice", "assay": "Pre-emergence test, damage to crop plants", "conditions": "application rate 1280 g/ha, after 3 weeks", "text": "as §2"}, "[8]": {"test_system": "larvae of the mustard beetle (Phaedon cochleariae)", "assay": "Phaedon test (PHAECO spray treatment)", "conditions": "application rate 500 g/ha, Chinese cabbage leaf discs sprayed, after 7 days", "procedure": "• Solvent: 78.0 parts by weight of acetone • 1.5 parts by weight of dimethylformamide • Emulsifier: 0.5 part by weight of alkylaryl polyglycol ether\nTo produce a suitable preparation of active compound, 1 part by weight of active compound is mixed with the stated amounts of solvent and emulsifier, and the concentrate is diluted with emulsifier-containing water to the desired concentration. Discs of Chinese cabbage leaves (Brassica pekinensis) are sprayed with an active compound formulation of the desired concentration and, after drying, populated with larvae of the mustard beetle (Phaedon cochleariae). After 7 days, the activity in % is determined. 100% means that all of the beetle larvae have been killed; 0% means that none of the beetle larvae have been killed. In this test, for example, the following compounds of the Preparation Examples show, at an application rate of 500 g/ha, an activity of 100%: I-a-29, I-a-40."}, "Polygonum convolvulus": {"test_system": "Polygonum convolvulus", "assay": "Pre-emergence herbicidal action against weed plants", "conditions": "application rate 1280 g/ha, visual assessment after 3 weeks", "text": "as §2"}, "corn [9]": {"test_system": "corn", "assay": "Pre-emergence test, damage to crop plants", "conditions": "application rate 1280 g/ha, after 3 weeks", "text": "as §2"}, "oilseed rape [10]": {"test_system": "oilseed rape", "assay": "Pre-emergence test, damage to crop plants", "conditions": "application rate 1280 g/ha, after 3 weeks", "text": "as §2"}, "[11]": {"test_system": "greenhouse red spider mite (Tetranychus urticae)", "assay": "Tetranychus test, OP-resistant (TETRUR spray treatment)", "conditions": "application rate 500 g/ha, bean leaf discs sprayed, after 6 days", "procedure": "(§3) • Solvent: 78.0 parts by weight of acetone • 1.5 parts by weight of dimethylformamide • Emulsifier: 0.5 parts by weight of alkylaryl polyglycol ether\nTo produce a suitable preparation of active compound, 1 part by weight of active compound is mixed with the stated amounts of solvent and emulsifier, and the concentrate is diluted with emulsifier-containing water to the desired concentration. Discs of bean leaves (Phaseolus vulgaris) infested by all stages of the greenhouse red spider mite (Tetranychus urticae) are sprayed with an active compound formulation of the desired concentration. After 6 days, the activity in % is determined. 100% means that all of the spider mites have been killed; 0% means that none of the spider mites have been killed."}, "[12]": {"test_system": "caterpillars of the armyworm (Spodoptera frugiperda)", "assay": "Spodoptera frugiperda test (SPODFR spray treatment)", "conditions": "application rate 500 g/ha, corn leaf disks sprayed, after 7 days", "procedure": "as §3\nTo produce a suitable preparation of active compound, 1 part by weight of active compound is mixed with the stated amounts of solvent and emulsifier, and the concentrate is diluted with emulsifier-containing water to the desired concentration. Disks of corn leaves (Zea mays) are sprayed with an active compound preparation of the desired concentration and, after drying, populated with caterpillars of the armyworm (Spodoptera frugiperda). After 7 days, the activity in % is determined. 100% means that all of the caterpillars have been killed; 0% means that none of the caterpillars have been killed. In this test, for example, the following compounds of the Preparation Examples show, at an application rate of 500 g/ha, an activity of 85%: […], I-a-40. In this test, for example, the following compounds of the Preparation Examples show, at an application rate of 500 g/ha, an activity of 100%: I-a-38, I-a-39."}, "Lolium multiflorum [13]": {"test_system": "Lolium multiflorum", "assay": "Post-emergence herbicidal action against weed plants", "conditions": "application rate 320 g/ha, visual assessment after about 3 weeks", "procedure": "as §1"}}, "note": "Where “and” joins values, the source holds several entries; their conditions need not be identical. Equal entries are not always repeated.", "data": [{"compound": "6-(4′-chloro-4-methylbiphenyl-3-yl)-5-oxo-4-(prop-2-yn-1-yl)-4,5-dihydro[1,3]thiazolo[4,5]pyridin-7-yl 2-methylpropanoate [I-a-42]", "values": [{"measurement": "damage in rice", "setting": "rice [1]; application rate 80 g/ha", "value": "no damage"}, {"measurement": "damage in corn", "setting": "corn [2]; application rate 80 g/ha", "value": "no damage"}, {"measurement": "damage in corn", "setting": "corn [2]; application rate 320 g/ha", "value": "no damage"}, {"measurement": "damage in wheat", "setting": "wheat [3]", "value": "no damage"}, {"measurement": "damage in oilseed rape", "setting": "oilseed rape [4]", "value": "no damage"}, {"measurement": "herbicidal activity against Setaria viridis", "setting": "Setaria viridis", "value": "at least 80%"}, {"measurement": "herbicidal activity against Lolium multiflorum", "setting": "Lolium multiflorum [5]", "value": "at least 80%"}, {"measurement": "damage in wheat", "setting": "wheat [6]", "value": "no damage"}]}, {"compound": "Cn1c(=O)c(-c2c(F)ccc(-c3ccc(Cl)cc3Cl)c2Cl)c(O)c2scnc21", "note": "[I-a-19]", "values": [{"measurement": "herbicidal activity against Cyperus serotinus", "setting": "Cyperus serotinus", "value": "at least 80%"}, {"measurement": "herbicidal activity against Alopecurus myosuroides", "setting": "Alopecurus myosuroides", "value": "at least 80%"}, {"measurement": "damage in rice", "setting": "rice [7]", "value": "no damage"}, {"measurement": "damage in wheat", "setting": "wheat [6]", "value": "no damage"}]}, {"compound": "C#CCn1c(=O)c(-c2c(Cl)cc(-c3ccc(Cl)cc3)cc2CC)c(O)c2scnc21", "note": "[I-a-29]", "values": [{"measurement": "activity in % (beetle larvae killed)", "setting": "[8]", "value": 100, "unit": "%"}]}, {"compound": "O=c1c(-c2ccc(-c3ccc(Cl)cc3)cc2Cl)c(OCC(F)F)c2scnc2n1CC(F)F", "note": "[I-a-32]", "values": [{"measurement": "herbicidal activity against Polygonum convolvulus", "setting": "Polygonum convolvulus", "value": "at least 80%"}, {"measurement": "damage in corn", "setting": "corn [9]", "value": "no damage"}, {"measurement": "damage in oilseed rape", "setting": "oilseed rape [10]", "value": "no damage"}]}, {"compound": "C#CCn1c(=O)c(-c2cc(-c3ccc(Cl)cc3)ccc2Cl)c(O)c2scnc21", "note": "[I-a-37]", "values": [{"measurement": "activity in % (spider mites killed)", "setting": "[11]", "value": "85% and 90%"}]}, {"compound": "Cc1ccc(-c2ccc(Cl)cc2)cc1-c1c(O)c2scnc2n(C)c1=O", "note": "[I-a-38]", "values": [{"measurement": "damage in rice", "setting": "rice [1]; application rate 320 g/ha", "value": "no damage"}, {"measurement": "damage in corn", "setting": "corn [2]; application rate 320 g/ha", "value": "no damage"}, {"measurement": "activity in % (caterpillars killed)", "setting": "[12]", "value": "85% and 100%"}, {"measurement": "herbicidal activity against Lolium multiflorum", "setting": "Lolium multiflorum [13]", "value": "at least 80%"}, {"measurement": "activity in % (spider mites killed)", "setting": "[11]", "value": 85, "unit": "%"}, {"measurement": "damage in corn", "setting": "corn [9]", "value": "no damage"}, {"measurement": "damage in oilseed rape", "setting": "oilseed rape [10]", "value": "no damage"}]}, {"compound": "Cc1ccc(-c2ccc(Cl)cc2)cc1-c1c(O)c2scnc2n(CC(F)F)c1=O", "note": "[I-a-39]", "values": [{"measurement": "damage in corn", "setting": "corn [2]; application rate 320 g/ha", "value": "no damage"}, {"measurement": "damage in oilseed rape", "setting": "oilseed rape [4]", "value": "no damage"}, {"measurement": "activity in % (caterpillars killed)", "setting": "[12]", "value": "85% and 100%"}, {"measurement": "activity in % (spider mites killed)", "setting": "[11]", "value": "85% and 90%"}, {"measurement": "damage in corn", "setting": "corn [9]", "value": "no damage"}, {"measurement": "damage in oilseed rape", "setting": "oilseed rape [10]", "value": "no damage"}]}, {"compound": "C#CCn1c(=O)c(-c2cc(-c3ccc(Cl)cc3)ccc2C)c(O)c2scnc21", "note": "[I-a-40, 6-(4′-chloro-4-methylbiphenyl-3-yl)-7-hydroxy-4-(prop-2-yn-1-yl)[1,3]thiazolo[4,5-b]pyridin-5(4H)-one]", "values": [{"measurement": "activity in % (caterpillars killed)", "setting": "[12]", "value": 85, "unit": "%"}, {"measurement": "activity in % (beetle larvae killed)", "setting": "[8]", "value": 100, "unit": "%"}]}]}
